Tests used:
NQO2 = NQO2 (Homo sapiens, UniProt P16083); assay: chemoproteomic competition binding in mixed HEK293/K562/placenta extract, LC-MS/MS; assay type: biochemical
KasA = molecular target: T1, KasA (Mycobacterium tuberculosis, UniProt P9WQD9); assay: […] Å co-crystal structure; […]; also chemoproteomic Kd app […] and […] enzyme inhibition at […]; assay type: binding
T1 construct: recombinant KasA from pET28a-kasA

Pks10 = Pks10 (Mycobacterium tuberculosis, UniProt Q7VEV2); assay type: biochemical
Pks11 = assay type: biochemical, Mycobacterium bovis BCG
Adenosine A2a = molecular target: T2, Adenosine A2a (Homo sapiens, UniProt P29274); assay: cell-based; set-up: off-target selectivity panel, receptor agonist or channel opener mode, pXC50; conditions: agonist mode; read-out: pXC50 (agonist) (converted)
T2 construct: gene ADORA2A
Excerpt: (§1) From the outset, GSK3011724A, an indazole sulfonamide (Fig. 1a), represented an attractive compound for early stage drug discovery based on its anti-mycobacterial potency, small size and moderate lipophilicity (Table 1). Further profiling in vitro using standard assays, such as the hERG ion channel and cytochrome P450 isoforms supported this view (Table 1). […] A description of this optimization effort along with a thorough discussion of the drug development potential and liabilities of this series will be the subject of a future publication.

Adrenergic α2C = molecular target: T3, Adrenergic α2C (Homo sapiens, UniProt P18825); assay: cell-based; set-up: off-target selectivity panel, receptor agonist or channel opener mode, pXC50; conditions: agonist mode; read-out: pXC50 (agonist) (converted)
T3 construct: gene ADRA2C
Excerpt: as §1

Adrenergic β2 [1] = molecular target: T4, Adrenergic β2 (Homo sapiens, UniProt P07550); assay: cell-based; set-up: off-target selectivity panel, receptor agonist or channel opener mode, pXC50; conditions: agonist mode; read-out: pXC50 (agonist) (converted)
T4 construct: gene ADRB2
Excerpt: as §1

AhR = AhR (Homo sapiens, UniProt P35869); assay: cell-based; set-up: off-target selectivity panel, receptor agonist or channel opener mode, pXC50; conditions: agonist mode; read-out: pXC50 (agonist) (converted)
Excerpt: as §1

Cannabinoid CB2 = molecular target: T5, Cannabinoid CB2 (Homo sapiens, UniProt P34972); assay: cell-based; set-up: off-target selectivity panel, receptor agonist or channel opener mode, pXC50; conditions: agonist mode; read-out: pXC50 (agonist) (converted)
T5 construct: gene CNR2
Excerpt: as §1

Dopamine D2 = molecular target: T6, Dopamine D2 (Homo sapiens, UniProt P14416); assay: cell-based; set-up: off-target selectivity panel, receptor agonist or channel opener mode, pXC50; conditions: agonist mode; read-out: pXC50 (agonist) (converted)
T6 construct: gene DRD2
Excerpt: as §1

Muscarine M1 = molecular target: T7, Muscarine M1 (Homo sapiens, UniProt P11229); assay: cell-based; set-up: off-target selectivity panel, receptor agonist or channel opener mode, pXC50; conditions: agonist mode; read-out: pXC50 (agonist) (converted)
T7 construct: gene CHRM1
Excerpt: as §1

Muscarine M2 = molecular target: T8, Muscarine M2 (Homo sapiens, UniProt P08172); assay: cell-based; set-up: off-target selectivity panel, receptor agonist or channel opener mode, pXC50; conditions: agonist mode; read-out: pXC50 (agonist) (converted)
T8 construct: gene CHRM2
Excerpt: as §1

Opioid κ = molecular target: T9, Opioid κ (Homo sapiens, UniProt P41145); assay: cell-based; set-up: off-target selectivity panel, receptor agonist or channel opener mode, pXC50; conditions: agonist mode; read-out: pXC50 (agonist) (converted)
T9 construct: gene OPRK1
Excerpt: as §1

Opioid μ = molecular target: T10, Opioid μ (Homo sapiens, UniProt P35372); assay: cell-based; set-up: off-target selectivity panel, receptor agonist or channel opener mode, pXC50; conditions: agonist mode; read-out: pXC50 (agonist) (converted)
T10 construct: gene OPRM1
Excerpt: as §1

PXR = molecular target: T11, PXR (Homo sapiens, UniProt O75469); assay: cell-based; set-up: off-target selectivity panel, receptor agonist or channel opener mode, pXC50; conditions: agonist mode; read-out: pXC50 (agonist) (converted)
T11 construct: gene NR1I2
Excerpt: as §1

Serotonin 5HT1B = molecular target: T12, Serotonin 5HT1B (Homo sapiens, UniProt P28222); assay: cell-based; set-up: off-target selectivity panel, receptor agonist or channel opener mode, pXC50; conditions: agonist mode; read-out: pXC50 (agonist) (converted)
T12 construct: gene HTR1B
Excerpt: as §1

Serotonin 5HT2A = molecular target: T13, Serotonin 5HT2A (Homo sapiens, UniProt P28223); assay: cell-based; set-up: off-target selectivity panel, receptor agonist or channel opener mode, pXC50; conditions: agonist mode; read-out: pXC50 (agonist) (converted)
T13 construct: gene HTR2A
Excerpt: as §1

Serotonin 5HT2C = molecular target: T14, Serotonin 5HT2C (Homo sapiens, UniProt P28335); assay: cell-based; set-up: off-target selectivity panel, receptor agonist or channel opener mode, pXC50; conditions: agonist mode; read-out: pXC50 (agonist) (converted)
T14 construct: gene HTR2C
Excerpt: as §1

Serotonin 5HT3 = molecular target: T15, Serotonin 5HT3 (Homo sapiens, UniProt P46098); assay: cell-based; set-up: off-target selectivity panel, receptor agonist or channel opener mode, pXC50; conditions: opener mode; read-out: pXC50 (opener) (converted)
T15 construct: gene HTR3A
Excerpt: as §1

α1 nicotinic AChR = molecular target: T16, α1 nicotinic AChR (Homo sapiens, UniProt P02708); assay: cell-based; set-up: off-target selectivity panel, receptor agonist or channel opener mode, pXC50; conditions: opener mode; read-out: pXC50 (opener) (converted)
T16 construct: gene CHRNA1
Excerpt: as §1

Adrenergic α1B = molecular target: T17, Adrenergic α1B (Homo sapiens, UniProt P35368); assay: cell-based; set-up: off-target selectivity panel, receptor antagonist, channel blocker or transporter inhibition mode, pXC50; conditions: antagonist mode; read-out: pXC50 (antagonist) (converted)
T17 construct: gene ADRA1B
Excerpt: as §1

Adrenergic β2 [2] = molecular target: T4, Adrenergic β2; assay: cell-based; set-up: off-target selectivity panel, receptor antagonist, channel blocker or transporter inhibition mode, pXC50; conditions: antagonist mode; read-out: pXC50 (antagonist) (converted)
Excerpt: as §1

Dopamine D1 = molecular target: T18, Dopamine D1 (Homo sapiens, UniProt P21728); assay: cell-based; set-up: off-target selectivity panel, receptor antagonist, channel blocker or transporter inhibition mode, pXC50; conditions: antagonist mode; read-out: pXC50 (antagonist) (converted)
T18 construct: gene DRD1
Excerpt: as §1

T4 sequence (P07550 whole entry): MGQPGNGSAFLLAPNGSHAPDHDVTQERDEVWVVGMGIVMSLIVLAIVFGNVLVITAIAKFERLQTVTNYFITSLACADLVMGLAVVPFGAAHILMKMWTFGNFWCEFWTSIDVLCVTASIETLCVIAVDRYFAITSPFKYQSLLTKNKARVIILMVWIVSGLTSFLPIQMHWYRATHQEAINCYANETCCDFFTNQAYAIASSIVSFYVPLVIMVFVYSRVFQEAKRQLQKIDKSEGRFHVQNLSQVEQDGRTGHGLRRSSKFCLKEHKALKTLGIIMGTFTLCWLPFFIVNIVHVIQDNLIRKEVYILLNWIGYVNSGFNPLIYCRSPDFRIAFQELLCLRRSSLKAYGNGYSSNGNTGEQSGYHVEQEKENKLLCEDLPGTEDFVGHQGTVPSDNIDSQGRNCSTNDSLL
T14 sequence (P28335 whole entry): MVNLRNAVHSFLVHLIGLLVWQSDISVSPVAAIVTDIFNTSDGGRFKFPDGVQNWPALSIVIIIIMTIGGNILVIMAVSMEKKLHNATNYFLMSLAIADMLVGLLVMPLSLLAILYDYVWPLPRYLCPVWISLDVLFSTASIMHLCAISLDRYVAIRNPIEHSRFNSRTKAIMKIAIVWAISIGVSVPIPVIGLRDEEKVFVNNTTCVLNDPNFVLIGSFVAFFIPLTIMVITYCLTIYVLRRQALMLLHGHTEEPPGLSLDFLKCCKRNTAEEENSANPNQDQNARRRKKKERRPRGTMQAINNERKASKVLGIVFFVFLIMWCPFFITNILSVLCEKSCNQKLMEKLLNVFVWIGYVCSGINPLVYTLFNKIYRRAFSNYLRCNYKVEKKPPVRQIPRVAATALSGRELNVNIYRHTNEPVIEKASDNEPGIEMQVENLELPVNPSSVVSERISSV
T7 sequence (P11229 whole entry): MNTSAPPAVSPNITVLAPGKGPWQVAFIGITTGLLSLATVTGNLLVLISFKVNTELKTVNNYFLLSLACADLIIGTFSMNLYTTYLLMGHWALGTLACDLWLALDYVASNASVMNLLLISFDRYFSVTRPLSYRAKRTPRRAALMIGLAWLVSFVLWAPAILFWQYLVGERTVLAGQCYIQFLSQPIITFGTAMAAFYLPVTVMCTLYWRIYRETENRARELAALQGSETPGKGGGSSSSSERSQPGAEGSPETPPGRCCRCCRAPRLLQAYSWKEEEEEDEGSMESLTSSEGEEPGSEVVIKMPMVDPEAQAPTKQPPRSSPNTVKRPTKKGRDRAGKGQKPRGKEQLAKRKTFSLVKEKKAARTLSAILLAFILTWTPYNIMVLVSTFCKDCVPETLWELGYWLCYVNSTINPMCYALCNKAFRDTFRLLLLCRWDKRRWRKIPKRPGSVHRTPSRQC
NQO2, sequence (P16083 whole entry): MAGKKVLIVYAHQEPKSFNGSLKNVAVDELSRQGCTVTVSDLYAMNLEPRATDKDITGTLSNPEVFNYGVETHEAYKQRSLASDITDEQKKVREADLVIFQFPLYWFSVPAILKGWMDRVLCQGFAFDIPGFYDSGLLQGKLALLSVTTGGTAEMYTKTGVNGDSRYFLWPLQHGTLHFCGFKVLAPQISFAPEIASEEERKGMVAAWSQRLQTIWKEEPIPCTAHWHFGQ
T11 sequence (O75469 whole entry): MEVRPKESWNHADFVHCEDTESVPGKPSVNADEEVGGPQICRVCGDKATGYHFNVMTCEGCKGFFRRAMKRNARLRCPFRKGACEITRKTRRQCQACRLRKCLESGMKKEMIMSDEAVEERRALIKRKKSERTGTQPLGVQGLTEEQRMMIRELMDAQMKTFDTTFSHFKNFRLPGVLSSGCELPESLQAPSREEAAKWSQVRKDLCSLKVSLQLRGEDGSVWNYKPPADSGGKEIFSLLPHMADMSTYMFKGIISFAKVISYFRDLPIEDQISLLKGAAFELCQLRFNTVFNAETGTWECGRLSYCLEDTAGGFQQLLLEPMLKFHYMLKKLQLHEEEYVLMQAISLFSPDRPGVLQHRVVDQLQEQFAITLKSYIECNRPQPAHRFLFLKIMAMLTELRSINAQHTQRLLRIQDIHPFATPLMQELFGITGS
AhR, sequence (P35869 whole entry): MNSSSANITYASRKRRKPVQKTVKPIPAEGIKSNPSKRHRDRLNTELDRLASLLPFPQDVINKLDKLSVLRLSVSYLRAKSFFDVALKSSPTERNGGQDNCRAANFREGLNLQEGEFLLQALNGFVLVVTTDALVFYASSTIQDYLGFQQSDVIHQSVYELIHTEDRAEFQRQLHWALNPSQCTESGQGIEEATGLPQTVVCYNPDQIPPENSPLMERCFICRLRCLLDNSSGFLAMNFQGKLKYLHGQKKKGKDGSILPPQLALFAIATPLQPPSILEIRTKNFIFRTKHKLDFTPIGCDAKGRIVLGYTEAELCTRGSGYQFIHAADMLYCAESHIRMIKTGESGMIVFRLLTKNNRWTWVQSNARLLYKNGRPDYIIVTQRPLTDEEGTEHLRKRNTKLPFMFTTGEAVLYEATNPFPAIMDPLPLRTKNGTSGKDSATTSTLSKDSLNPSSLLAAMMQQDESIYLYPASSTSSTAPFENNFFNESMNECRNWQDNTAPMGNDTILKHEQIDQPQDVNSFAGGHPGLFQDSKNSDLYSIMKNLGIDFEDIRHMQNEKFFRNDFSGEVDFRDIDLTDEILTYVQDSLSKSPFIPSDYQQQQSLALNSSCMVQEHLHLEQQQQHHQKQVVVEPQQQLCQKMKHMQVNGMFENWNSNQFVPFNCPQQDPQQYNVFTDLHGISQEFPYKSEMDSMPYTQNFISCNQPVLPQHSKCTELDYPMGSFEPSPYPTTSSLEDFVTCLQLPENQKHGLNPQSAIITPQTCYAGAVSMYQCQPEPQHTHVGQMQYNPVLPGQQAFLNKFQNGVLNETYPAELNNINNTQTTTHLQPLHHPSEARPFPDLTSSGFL
T1 sequence (P9WQD9 whole entry): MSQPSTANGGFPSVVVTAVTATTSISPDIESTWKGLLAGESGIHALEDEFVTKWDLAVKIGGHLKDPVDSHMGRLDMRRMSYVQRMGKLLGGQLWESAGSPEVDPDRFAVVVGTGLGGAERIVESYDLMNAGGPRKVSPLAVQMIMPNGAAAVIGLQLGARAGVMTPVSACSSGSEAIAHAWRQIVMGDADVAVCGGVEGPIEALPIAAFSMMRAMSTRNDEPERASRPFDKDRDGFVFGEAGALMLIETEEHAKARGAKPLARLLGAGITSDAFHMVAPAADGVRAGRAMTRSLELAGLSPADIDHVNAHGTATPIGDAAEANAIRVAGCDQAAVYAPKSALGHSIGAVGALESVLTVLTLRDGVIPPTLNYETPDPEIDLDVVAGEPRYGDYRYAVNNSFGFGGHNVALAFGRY
T5 sequence (P34972 whole entry): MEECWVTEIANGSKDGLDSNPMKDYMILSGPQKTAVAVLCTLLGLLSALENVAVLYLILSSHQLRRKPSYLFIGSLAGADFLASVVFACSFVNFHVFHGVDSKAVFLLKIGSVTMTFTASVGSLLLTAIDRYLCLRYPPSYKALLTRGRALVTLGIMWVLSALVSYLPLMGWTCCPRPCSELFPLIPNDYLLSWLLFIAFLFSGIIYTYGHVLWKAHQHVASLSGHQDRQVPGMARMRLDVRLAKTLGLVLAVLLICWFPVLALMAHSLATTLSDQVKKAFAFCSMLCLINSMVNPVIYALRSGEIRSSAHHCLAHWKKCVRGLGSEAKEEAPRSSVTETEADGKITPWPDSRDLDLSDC
T3 sequence (P18825 whole entry): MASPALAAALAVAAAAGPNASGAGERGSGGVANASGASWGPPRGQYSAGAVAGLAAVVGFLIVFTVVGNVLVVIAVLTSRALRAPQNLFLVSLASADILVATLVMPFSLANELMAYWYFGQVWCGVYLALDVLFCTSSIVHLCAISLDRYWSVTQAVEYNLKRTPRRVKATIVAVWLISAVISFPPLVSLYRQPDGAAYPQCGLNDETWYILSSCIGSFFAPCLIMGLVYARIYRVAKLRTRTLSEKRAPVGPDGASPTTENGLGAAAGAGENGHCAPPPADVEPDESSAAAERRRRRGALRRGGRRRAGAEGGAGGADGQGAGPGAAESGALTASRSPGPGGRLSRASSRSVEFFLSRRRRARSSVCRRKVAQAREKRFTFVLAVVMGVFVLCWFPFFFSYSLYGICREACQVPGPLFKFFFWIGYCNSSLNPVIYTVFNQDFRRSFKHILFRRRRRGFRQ
T15 sequence (P46098 whole entry): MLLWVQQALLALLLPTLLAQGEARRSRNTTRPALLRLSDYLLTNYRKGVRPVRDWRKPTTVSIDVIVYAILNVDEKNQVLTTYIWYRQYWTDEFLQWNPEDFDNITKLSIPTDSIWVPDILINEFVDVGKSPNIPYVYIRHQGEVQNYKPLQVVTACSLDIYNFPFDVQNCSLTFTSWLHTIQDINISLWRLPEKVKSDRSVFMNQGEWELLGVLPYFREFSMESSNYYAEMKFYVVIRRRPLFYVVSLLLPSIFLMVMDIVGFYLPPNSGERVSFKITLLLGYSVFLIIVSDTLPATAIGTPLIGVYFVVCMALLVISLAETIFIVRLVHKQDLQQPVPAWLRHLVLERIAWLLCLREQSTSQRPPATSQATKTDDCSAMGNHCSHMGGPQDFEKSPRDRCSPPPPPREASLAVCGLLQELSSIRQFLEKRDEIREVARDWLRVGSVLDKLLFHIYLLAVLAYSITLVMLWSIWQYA
T10 sequence (P35372 whole entry): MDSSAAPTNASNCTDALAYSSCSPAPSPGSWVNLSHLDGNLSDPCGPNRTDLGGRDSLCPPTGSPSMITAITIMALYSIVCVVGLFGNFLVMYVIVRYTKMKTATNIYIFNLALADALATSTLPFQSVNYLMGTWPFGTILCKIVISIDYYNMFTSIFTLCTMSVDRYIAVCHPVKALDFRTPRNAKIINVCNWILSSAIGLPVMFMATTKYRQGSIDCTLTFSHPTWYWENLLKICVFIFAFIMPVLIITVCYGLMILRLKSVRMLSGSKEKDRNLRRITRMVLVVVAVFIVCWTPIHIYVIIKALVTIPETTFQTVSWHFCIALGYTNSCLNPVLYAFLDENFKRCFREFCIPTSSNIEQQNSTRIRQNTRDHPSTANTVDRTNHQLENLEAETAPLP

`CCCCS(=O)(=O)Nc1ccc2cnn(C)c2c1` [GSK3011724A] was tested, and the Kd (NQO2) was 4 to 6 µM, the Kd (KasA) was 0.01 to 0.02 µM and the Kd (Pks10) was 1.4 µM. The Kd (Pks11) was 1.4 µM, the EC50 (Adenosine A2a) was over 100 µM and the EC50 (Adrenergic α2C) was over 100 µM. For the same compound, the EC50 (Adrenergic β2 [1]) was over 100 µM, the EC50 (AhR) was over 100 µM and the EC50 (Cannabinoid CB2) was over 100 µM. It also gave an EC50 (Dopamine D2) of over 100 µM, an EC50 (Muscarine M1) of over 50.1 µM and an EC50 (Muscarine M2) of over 50.1 µM. The EC50 (Opioid κ) was over 100 µM, the EC50 (Opioid μ) was over 100 µM and the EC50 (PXR) was over 50.1 µM. For the same compound, the EC50 (Serotonin 5HT1B) was over 100 µM, the EC50 (Serotonin 5HT2A) was over 25.1 µM and the EC50 (Serotonin 5HT2C) was over 25.1 µM. The EC50 (Serotonin 5HT3) was over 50.1 µM, the EC50 (α1 nicotinic AChR) was over 50.1 µM and the IC50 (Adrenergic α1B) was over 25.1 µM. The IC50 (Adrenergic β2 [2]) was over 100 µM and the IC50 (Dopamine D1) was over 100 µM.

From paper PMC5025758 (Nature Communications, 2016)
